Patent US20240041982A1, “EXTENDED RELEASE HYDROGEL CONJUGATES OF C-NATRIURETIC PEPTIDES” (ProLynx LLC, priority 2020, published 2024)
Bridge positions count the residues as written; N and C are the ends. Ends that are not written are not given here.

What was measured:
[1] = tested on: wild-type male mice (FVB/nJ); assay: Pharmacodynamics in juvenile mice: growth and bone length by X-ray; assay type: in vivo; settings: QD 70 nmol/kg; after 5 weeks of treatment
Experimental: Three-week old wild-type male mice (FVB/nJ; Charles River Laboratory, Inc) were administered subcutaneous injections of the conjugates of Example 3 at either a weight-adjusted (nmol/kg) or constant (nmol/animal independent of the initial weight) dose over 35 days. For experiments using constant doses/animal, the conjugate of Example 3 wherein R^1=isopropylsulfonyl (conjugate 4A) was administered at either 20 or 50 nmol/mouse; the conjugate of Example 3 wherein R^1=(N,N-dimethylamino)sulfonyl (conjugate 4B) was administered at either 85 or 600 nmol/mouse. For experiments using weight-adjusted doses/animal, conjugate 4A was administered at either 1.5 or 2.2 umol/kg; conjugate 4B was administered at 6.1 umol/kg. Doses were calculated based on the body weight just prior to dosing and performed at approximately the same time of day. Comparator animals were dosed with either [Gln^6,14]CNP-38 or vosoritide at 70 nmol/kg formulated in 30 mM acetic acid pH 4.0 containing 10% (w/v) sucrose and 1% (v/v) benzyl alcohol (Wendt; Breinholt), and control animals were dosed with the formulation buffer (isotonic acetate (10 mM Na Acetate, 143 mM NaCl), pH 5.0, 0.05% Tween 20 buffer containing 1.2% sodium hyaluronate. Daily weight-adjusted doses were calculated based on the body weight just prior to dosing and performed at approximately the same time each day.
Blood collections were made via tail vein with the addition of protease inhibitors (Halt protease inhibitor cocktail, ThermoScientific) and processed with K2EDTA to provide ˜15-20 μL plasma, for analysis of free [Gln^6,14]CNP-38. For the mice treated with the conjugate 4A, blood collection occurred at 0, 24, 168, 192, 336, 360, 504, 528, 672 and 840 hr. For the mice treated with conjugate 4B, blood collection occurred at 0, 24, 168, 336, 504, 672 and 840 hr.
Body weight, tail length and naso-anal length were collected at study initiation and were measured weekly during the in-life treatment period. […] The naso-anal (distance from the tip of the nose to the anus) and the tail length (distance from the anus to the tip of the tail) were measured and recorded. The same ruler was used for all measurements, and all measurements were conducted and recorded in centimeters. Total length (TL) is derived from the addition of the measured tail length and naso-anal length.
On day 35, the mice were anesthetized and in addition to the nasal-anal and tail length measurements, bone length measurements were made by digital X-ray (spine, right femur, right tibia, humerus and ulna). Following deep anesthesia with isoflurane, the mice were placed in the prone position and the length of the spine (lateral view, distance from the most cranial end of the C1 vertebra to the most caudal end of the S4 vertebra and accounting for curvature manually), the right femur (distance from the most proximal femoral head ossification center to the most distal ossification center in dorso-ventral view), the right tibia (distance from the most proximal ossification center to the most distal ossification center in dorso-ventral view), the right humerus (distance from the most proximal ossification center to the most distal ossification center in dorso-ventral view), and the right ulna (distance from the most proximal ossification center to the most distal ossification center in dorso-ventral view) of each mouse were measured by x-ray using a Spectral Imaging Instruments AMI HTX and the associated Aura software.

NPR-B = molecular target: T1, NPR-B (Homo sapiens, UniProt P20594); settings: physiological concentrations (picomolar); cited from earlier work
T1 sequence (P20594 23-1047): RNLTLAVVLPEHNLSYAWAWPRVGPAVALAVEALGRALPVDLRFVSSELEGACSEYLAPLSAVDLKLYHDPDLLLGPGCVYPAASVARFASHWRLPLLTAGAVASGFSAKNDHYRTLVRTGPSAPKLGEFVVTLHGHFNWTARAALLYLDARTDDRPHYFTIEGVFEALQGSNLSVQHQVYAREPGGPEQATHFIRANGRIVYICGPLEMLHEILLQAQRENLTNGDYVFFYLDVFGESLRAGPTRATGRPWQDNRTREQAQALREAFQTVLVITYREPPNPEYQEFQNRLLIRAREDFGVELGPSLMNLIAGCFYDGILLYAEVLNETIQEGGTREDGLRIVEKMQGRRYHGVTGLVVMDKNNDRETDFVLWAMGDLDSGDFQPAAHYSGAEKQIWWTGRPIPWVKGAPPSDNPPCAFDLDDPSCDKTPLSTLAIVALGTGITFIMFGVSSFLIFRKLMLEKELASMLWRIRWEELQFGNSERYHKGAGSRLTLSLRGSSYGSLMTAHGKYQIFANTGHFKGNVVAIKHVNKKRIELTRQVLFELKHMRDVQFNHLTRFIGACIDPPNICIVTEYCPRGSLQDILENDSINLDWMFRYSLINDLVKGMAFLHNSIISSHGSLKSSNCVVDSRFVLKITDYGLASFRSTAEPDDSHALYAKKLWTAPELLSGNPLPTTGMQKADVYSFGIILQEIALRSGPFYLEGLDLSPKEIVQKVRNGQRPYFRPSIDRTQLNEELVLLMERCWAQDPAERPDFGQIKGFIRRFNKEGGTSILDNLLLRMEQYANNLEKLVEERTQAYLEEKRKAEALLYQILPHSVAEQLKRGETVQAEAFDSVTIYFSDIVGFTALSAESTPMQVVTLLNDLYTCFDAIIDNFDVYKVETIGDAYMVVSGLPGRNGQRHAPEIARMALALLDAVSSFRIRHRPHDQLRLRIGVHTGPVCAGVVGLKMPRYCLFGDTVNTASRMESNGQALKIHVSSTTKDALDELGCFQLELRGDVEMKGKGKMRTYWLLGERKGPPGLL

[2] = in vivo; cited from earlier work
[3] = in vivo; cited from earlier work; remark: listed apart in the source

With “(Gln^6,14)CNP38 (LQEHPQARKYKGAQKKGLSKGCFGLKLDRIGSMSGLGC; disulfide 22-38) [[Gln6, 14] CNP-38]” the “Femur length % change from vehicle” value [1] was “(13.6%)”, the “Humerus length % change from vehicle” value [1] was “(0.8%)” and the “Spine length % change from vehicle” value [1] was “(10.1%)”. For the same substance, the “Tibia length % change from vehicle” value [1] was “(8.7%)” and the “Ulna length % change from vehicle” value [1] was “(5.4%)”.

In the case of CNP22, the “affinity for NPR-B relative to ANP and BNP” value (NPR-B) is listed as 50-500 times and the plasma half-life [2] is listed as roughly 3 min.

In the case of “vosoritide (PGQEHPNARKYKGANKKGLSKGCFGLKLDRIGSMSGLGC; disulfide 23-39)”, the known side-effects [3] is given as “increased heart rate and a drop in arterial blood pressure” and the half-life [2] is given as 20 min.
